Source: patent US20070281991A1, “Preparation Of Phenol-Amide Compounds With Anti-Oxidizing Properties” (priority 2004, published 2007)

Test: Inhibitory effect on free radical diphenylpicrylhydrazide, UV spectrophotometry at 517 nm
Conditions: for Inhibition % / Absorbance at 517 nm: ethanolic solution, 20 micromoles by liter of compound, 100 micromeres by liter of radical (VIII), 30 minutes at 20° C.; for Absorbance at 517 nm: vat 1 cm, control only 1.15
Experimental: The anti-oxidizing potential in solution of the amide-phenol compounds (I) and (II) was evaluated by the degree of their reaction with radical free diphenyl-picrylhydrazide (VIII) following C. T. Ho, Journal of Agricultural and Food Chemistry, 1999, p.
The inhibitory effect of the free radicals claimed for the compounds (Ia) and (IIa) has been evaluated by the measure of their absorbencies in UV spectrophotometry at 517 nanometers in the presence of an excess of radical diphenylpicrylhydrazide (VIII).
Ethanolic solutions containing 20 micromoles by liter of compound to test and 100 micromeres by liter of radical (VIII) agitated for 30 minutes at 20° C. and placed in a vat 1 cm of length.

| SMILES | Inhibition % | Absorbance at 517 nm | inhibitory activity compared with TROLOX and methyl gallate (in words) (diphenylpicrylhydrazide radical test) |
| --- | --- | --- | --- |
| COC(=O)c1cc(O)c(O)c(O)c1 [Gallate of methyl (IIIa), methyl gallate] | 71% | 0.33 | – |
| CCCCCCCCCCC(CO)NC(=O)c1cc(O)c(O)c(O)c1 (stereo not shown) [Gallic amide (Ia)] | 70% | 0.35 | lower than TROLOX but comparable to that of methyl gallate |
| Cc1c(C)c2c(c(C)c1O)CCC(C)(C(=O)O)O2 (stereo not shown) [TROLOX (IVa), 6-hydroxy-2,5,7,8-tetramethyl chroman-2-carboxylic acid] | 91% | 0.10 | – |
